Source: EP2951180B1, “2,6,7,8 SUBSTITUTED PURINES AS HDM2 INHIBITORS” (Merck Sharp & Dohme Corp., priority 2013, dated 2014)
Read-outs that look alike come from different tables or passages of the source.

Biological target: T1, HDM2 (Homo sapiens, UniProt Q00987)
T1 construct: Thioredoxin (N); made in house; host or cells: E. coli strain BL21(DE3)Rosetta
Test: HDM2 FRET assay (inhibition of binding of FITC labeled p53-pocket peptide to HDM2)
Settings: for IC50: read-out: FRET IC50
Summary of the method: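 Signal is read as the 520/495 nm emission ratio and converted to percent inhibition; nonlinear sigmoidal regression yields IC50. The assay mixes HDM2 (0.5 nM), FITC-p53 peptide (3 nM) and Tb anti-His antibody (0.25 nM) at 0.1% DMSO.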

[1] = 0.5 nM HDM2 (residues 17 to 125), 3nM peptide, two hour incubation at room temperature

T1 sequence (Q00987 17-125): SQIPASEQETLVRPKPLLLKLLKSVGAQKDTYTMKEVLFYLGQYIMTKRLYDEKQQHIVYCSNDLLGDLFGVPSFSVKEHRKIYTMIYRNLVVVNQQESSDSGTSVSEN

With `C[C@H](Nc1nc2nc(C(=O)O)nc(N[C@H](C)C3CCC3)c2n1Cc1ccc(C(F)(F)F)cc1)c1ccc(F)cc1` [Example 9.1, 6-{[(1R)-1-cyclobutylethyl]amino}-8-{[(1S)-1-(4-fluorophenyl)ethyl]amino}-7-[4-(trifluoromethyl)benzyl]-7H-purine-2-carboxylic acid] the IC50 (Table 9) was 1.81 nM.

`C[C@@H](Nc1nc(-c2noc(=O)[nH]2)nc2nc(C3(c4cccnc4)CC3)n(C[C@H]3CC[C@H](C)CC3)c12)C1CCC1` [Example 22.39, 3-[6-{[(1R)-1-cyclobutylethyl]amino}-7-[(trans-4-methylcyclohexyl)methyl] -8-(1-pyridin-3-ylcyclopropyl)-7H-purin-2-yl]-1,2,4-oxadiazol-5(2H)-one] gave an IC50 (Table 22) of 13.9 nM.

In the case of `CC[C@H]1CC[C@H](Cn2c(-c3cc(C)ccc3OC)nc3nc(C(=O)O)nc(N[C@H](C)C4CCC4)c32)CC1` [Example 18.16, 6-{[(1R)-1-cyclobutylethyl]amino}-7-[(trans-4-ethylcyclohexyl)methyl]-8-(2-methoxy-5-methylphenyl)-7H-purine-2-carboxylic acid], the IC50 (Table 18) is reported as 31.8 nM.

Work on `Cc1cccc(-c2nc3nc(C(=O)O)nc(N[C@@H](C)c4cccc(Cl)c4)c3n2Cc2ccc(C(F)(F)F)cc2)c1` [Example 6.26, 6-{[(1S)-1-(3-chlorophenyl)ethyl]amino}-8-(3-methylphenyl)-7-[4-(trifluoromethyl)benzyl]-7H-purine-2-carboxylic acid] yielded an IC50 (Table 6) of 6970 nM.

Compound `C[C@@H](Nc1nc(-c2noc(=O)[nH]2)nc2nc(N3CCOC4CCCC43)n(C[C@H]3CC[C@H](C)CC3)c12)C1CCC1` (single isomer, unassigned) [Example 11.131] has an IC50 (Table 11) of 7.02 nM.

Compound `C[C@@H](Nc1nc(-c2noc(=O)[nH]2)nc2nc(N(C)CCc3ccccc3)n(Cc3ccc(C(F)(F)F)cc3)c12)C1CCC1` [Example 9.94, 3-(6-{[(1R)-1-cyclobutylethyl]amino}-8-[methyl(2-phenylethyl)amino]-7-[4-(trifluoromethyl)benzyl]-7H-purin-2-yl)-1,2,4-oxadiazol-5(4H)-one] has an IC50 (Table 9) of 96.7 nM.

`CC(C)C1CCCCN1c1nc2nc(C(=O)O)nc(N[C@H](C)C3CCC3)c2n1C[C@H]1CC[C@H](C)CC1` (stereo partly drawn) [Example 11.54, 6-{[(1R)-1-cyclobutylethyl]amino}-7-[(trans-4-methylcyclohexyl)methyl]-8-[2-(1-methylethyl)piperidin-1-yl] -7H-purine-2-carboxylic acid] was tested, and the IC50 (Table 11) was 3.31 nM.

For `C[C@@H](Nc1nc(-c2noc(=O)[nH]2)nc2nc(N3CCCCC3c3ccccc3)n(Cc3ccc(C(F)(F)F)cc3)c12)C1CCC1` (stereo partly drawn) [Example 9.67, 3-(6-{[(1R)-1-cyclobutylethyl]amino}-8-(2-phenylpiperidin-1-yl)-7-[4-(trifluoromethyl)benzyl]-7H-purin-2-yl)-1,2,4-oxadiazol-5(4H)-one], the IC50 (Table 9) was 12.7 nM.

With `Cc1cccc(-c2nc3nc(C(=O)O)nc(N[C@H](C)C4CC4)c3n2Cc2ccc(F)c(Cl)c2)c1` [Example 6.15, 7-(3-chloro-4-fluorobenzyl)-6-{[(1R)-1-cyclopropylethyl]amino}-8-(3-methylphenyl)-7H-purine-2-carboxylic acid] the IC50 (Table 6) was 371 nM.

Work on `C[C@H]1CC[C@H](Cn2c(N3CCOC[C@H]3c3ccccc3)nc3nc(-c4noc(=O)[nH]4)nc(-c4cc(Cl)cc(Cl)c4)c32)CC1` [Example 16.19, 3-{6-(3,5-dichlorophenyl)-7-[(trans-4-methylcyclohexyl)methyl]-8-[(3R)-3-phenylmorpholin-4-yl]-7H-purin-2-yl}-1,2,4-oxadiazol-5(4H)-one] yielded an IC50 [1] of 0.995 nM.

`C[C@@H]1OCCN(c2nc3nc(-c4noc(=O)[nH]4)nc(-c4cccc(Cl)c4)c3n2C[C@H]2CC[C@H](C)CC2)[C@@H]1c1ccccc1` [Example 16.126, 3-{6-(3-chlorophenyl)-7-[(trans-4-methylcyclohexyl)methyl]-8-[(2S,3R)-2-methyl-3-phenylmorpholin-4-yl]-7H-purin-2-yl}-1,2,4-oxadiazol-5(4H)-one] showed an IC50 [1] of 85.6 nM.

`C[C@@H](Nc1nc(-c2n[nH]c(=O)o2)nc2nc(N3CCOC[C@H]3c3ccccc3)n(C[C@H]3CC[C@H](C)CC3)c12)C1CCC1` [Example 11.55, 5-(6-{[(1R)-1-cyclobutylethyl]amino}-7-[(trans-4-methylcyclohexyl)methyl]-8-[(3R)-3-phenylmorpholin-4-yl]-7H-purin-2-yl)-1,3,4-oxadiazol-2(3H)-one] was tested, and the IC50 (Table 11) was 2.14 nM.

With `COCC1COCCN1c1nc2nc(-c3noc(=O)[nH]3)nc(N[C@H](C)C3CCC3)c2n1C[C@H]1CC[C@H](C)CC1` (single isomer, unassigned) [Example 11.150] the IC50 (Table 11) was 6.73 nM.

With `COC1(c2nc3nc(-c4n[nH]c(=O)o4)nc(-c4cncc(Cl)c4)c3n2C[C@H]2CC[C@H](C)CC2)CCCCC1C` (relative stereo) [Example 23.64, 5-{6-(5-chloropyridin-3-yl)-8-(1-methoxy-2-methylcyclohexyl)-7-[(trans-4-methylcyclohexyl)methyl] -7H-purin-2-yl}-1,3,4-oxadiazol-2(3H)-one] the IC50 (Table 23) was 8.8 nM.

Work on `C[C@@H]1COCCN1c1nc2nc(CC(=O)O)nc(-c3cccc(Cl)c3)c2n1C[C@H]1CC[C@H](C)CC1` [Example 26.2, {6-(3-chlorophenyl)-7-[(trans-4-methylcyclohexyl)methyl]-8-[(3R)-3-methylmorpholin-4-yl]-7H-purin-2-yl} acetic acid] yielded an IC50 (Table 26) of 783 nM.

With `Cc1noc([C@@H]2COCCN2c2nc3nc(-c4noc(=O)[nH]4)nc(-c4cccc(Cl)c4)c3n2C[C@H]2CC[C@H](C)CC2)n1` [Example 16.116, 3-{6-(3-chlorophenyl)-7-[(trans-4-methylcyclohexyl)methyl]-8-[(3S)-3-(3-methyl-1,2,4-oxadiazol-5-yl)morpholin-4-yl]-7H-purin-2-yl}-1,2,4-oxadiazol-5(4H)-one] the IC50 [1] was 7.26 nM.

For `C[C@@H](Nc1nc(-c2noc(=O)[nH]2)nc2nc(N3CCCCC3c3cccc(F)c3)n(Cc3ccc(C(F)(F)F)cc3)c12)C1CCC1` (stereo partly drawn) [Example 9.113, 3-(6-{[(1R)-1-cyclobutylethyl]amino}-8-[2-(3-fluorophenyl)piperidin-1-yl]-7-[4-(trifluoromethyl)benzyl]-7H-purin-2-yl)-1,2,4-oxadiazol-5(4H)-one], the IC50 (Table 9) was 25.9 nM.

`CC(C)c1ccnc(-c2nc3nc(C(=O)O)nc(N[C@@H](c4ccccc4)C4CCC4)c3n2Cc2ccc(C(F)(F)F)cc2)c1` [Example 6.57, 6-{[(R)-cyclobutyl(phenyl)methyl]amino}-8-[4-(1-methylethyl)pyridin-2-yl]-7-[4-(trifluoromethyl)benzyl]-7H-purine-2-carboxylic acid] gave an IC50 (Table 6) of 1060 nM.

Work on `C[C@@H]1COCCN1c1nc2nc(-c3noc(=O)[nH]3)nc(N[C@H](C)C3CCC3)c2n1Cc1ccc(C(F)(F)F)cc1` [Example 9.125, 3-(6-{[(1R)-1-cyclobutylethyl]amino}-8-[(3R)-3-methylmorpholin-4-yl]-7-[4-(trifluoromethyl)benzyl]-7H-purin-2-yl)-1,2,4-oxadiazol-5(4H)-one] yielded an IC50 (Table 9) of 6.72 nM.

Compound `C[C@@H](Nc1nc(-c2noc(=O)[nH]2)nc2nc(N3CCCC3C[S+](C)[O-])n(C[C@H]3CC[C@H](C)CC3)c12)C1CCC1` (single isomer, unassigned) [Example 11.154] has an IC50 (Table 11) of 70.7 nM.

With `C[C@@H](Nc1nc(-c2noc(=O)[nH]2)nc2nc(N3CCC[C@@H]4CCCC[C@H]43)n(C[C@H]3CC[C@H](C)CC3)c12)C1CCC1` [Example 11.61, 3-(6-{[(1R)-1-cyclobutylethyl]amino}-7-[(trans-4-methylcyclohexyl)methyl]-8-[(4aS,8aR)-octahydroquinolin-1(2H)-yl]-7H-purin-2-yl)-1,2,4-oxadiazol-5(4H)-one] the IC50 (Table 11) was 5.13 nM.

In the case of `C[C@@H](Nc1nc(-c2noc(=O)[nH]2)nc2nc(N(C)CCCN3CCCC3)n(Cc3ccc(C(F)(F)F)cc3)c12)C1CCC1` [Example 9.100, 3-(6-{[(1R)-1-cyclobutylethyl]amino}-8-[methyl(3-pyrrolidin-1-ylpropyl)amino]-7-[4-(trifluoromethyl)benzyl]-7H-purin-2-yl)-1,2,4-oxadiazol-5(4H)-one], the IC50 (Table 9) is reported as 148 nM.

`C[C@H]1CC[C@H](Cn2c(N3CCOC[C@H]3c3ccccc3F)nc3nc(-c4noc(=O)[nH]4)nc(-c4cncc(Cl)c4)c32)CC1` [Example 16.92, 3-{6-(5-chloropyridin-3-yl)-8-[(3R)-3-(2-fluorophenyl)morpholin-4-yl]-7-[(trans-4-methylcyclohexyl)methyl]-7H-purin-2-yl}-1,2,4-oxadiazol-5(4H)-one] gave an IC50 [1] of 0.585 nM.

With `Cc1cccc(-c2nc3nc(C(=O)O)nc(N(C)C(C4CC4)C4CC4)c3n2Cc2ccc(C(F)(F)F)cc2)c1` [Example 6.84, 6-[(dicyclopropylmethyl)(methyl)amino]-8-(3-methylphenyl)-7-[4-(trifluoromethyl)benzyl]-7H-purine-2-carboxylic acid] the inhibition at 1 µM (read-out: inh. at 1000 nM (FRET)) was 46%.

Work on `Cc1noc(C(C)Nc2nc3nc(-c4noc(=O)[nH]4)nc(N[C@H](C)C4CCC4)c3n2C[C@H]2CC[C@H](C)CC2)n1` (stereo partly drawn) [Example 11.90, 3-(6-{[(1R)-1-cyclobutylethyl]amino}-7-[(trans-4-methylcyclohexyl)methyl]-8-{[1-(3-methyl-1,2,4-oxadiazol-5-yl)ethyl]amino} -7H-purin-2-yl)-1,2,4-oxadiazol-5(2H)-one] yielded an IC50 (Table 11) of 4.04 nM.

`CC(Oc1ccccc1)c1nc2nc(C(=O)O)nc(N[C@H](C)C3CCC3)c2n1Cc1ccc(C(F)(F)F)cc1` (stereo partly drawn) [Example 10.8, 6-(((R)-1-Cyclobutylethyl)amino)-8-(1-phenoxyethyl)-7-(4-(trifluoromethyl)benzyl)-7H-purine-2-carboxylic acid] gave an IC50 (Table 10) of 28.9 nM.

With `C[C@@H](Nc1nc(-c2noc(=O)[nH]2)nc2nc(C(C)(O)c3ccccc3)n(C[C@H]3CC[C@H](C)CC3)c12)C1CCC1` (single isomer, unassigned) [Example 22.24] the IC50 (Table 22) was 33.8 nM.
